The target in this assay is Ubiquitin carboxyl-terminal hydrolase 8 (Homo sapiens) (UniProt P40818). The assay can be described thus: Ubiquitin-specific protease 8 inhibitors, concentration-effect, biochemical, validation of initial actives (AID 1645862).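 Also: potency reflects inhibition of USP8 cleavage of a ubiquitin rhodamine substrate.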 The note with it: recombinant USP8 deubiquitinase activity assay.

Active and inactive are the calls of the source. No rule for the calls is given here.

Ubiquitin carboxyl-terminal hydrolase 8 (Homo sapiens), sequence (P40818 whole entry, looked up): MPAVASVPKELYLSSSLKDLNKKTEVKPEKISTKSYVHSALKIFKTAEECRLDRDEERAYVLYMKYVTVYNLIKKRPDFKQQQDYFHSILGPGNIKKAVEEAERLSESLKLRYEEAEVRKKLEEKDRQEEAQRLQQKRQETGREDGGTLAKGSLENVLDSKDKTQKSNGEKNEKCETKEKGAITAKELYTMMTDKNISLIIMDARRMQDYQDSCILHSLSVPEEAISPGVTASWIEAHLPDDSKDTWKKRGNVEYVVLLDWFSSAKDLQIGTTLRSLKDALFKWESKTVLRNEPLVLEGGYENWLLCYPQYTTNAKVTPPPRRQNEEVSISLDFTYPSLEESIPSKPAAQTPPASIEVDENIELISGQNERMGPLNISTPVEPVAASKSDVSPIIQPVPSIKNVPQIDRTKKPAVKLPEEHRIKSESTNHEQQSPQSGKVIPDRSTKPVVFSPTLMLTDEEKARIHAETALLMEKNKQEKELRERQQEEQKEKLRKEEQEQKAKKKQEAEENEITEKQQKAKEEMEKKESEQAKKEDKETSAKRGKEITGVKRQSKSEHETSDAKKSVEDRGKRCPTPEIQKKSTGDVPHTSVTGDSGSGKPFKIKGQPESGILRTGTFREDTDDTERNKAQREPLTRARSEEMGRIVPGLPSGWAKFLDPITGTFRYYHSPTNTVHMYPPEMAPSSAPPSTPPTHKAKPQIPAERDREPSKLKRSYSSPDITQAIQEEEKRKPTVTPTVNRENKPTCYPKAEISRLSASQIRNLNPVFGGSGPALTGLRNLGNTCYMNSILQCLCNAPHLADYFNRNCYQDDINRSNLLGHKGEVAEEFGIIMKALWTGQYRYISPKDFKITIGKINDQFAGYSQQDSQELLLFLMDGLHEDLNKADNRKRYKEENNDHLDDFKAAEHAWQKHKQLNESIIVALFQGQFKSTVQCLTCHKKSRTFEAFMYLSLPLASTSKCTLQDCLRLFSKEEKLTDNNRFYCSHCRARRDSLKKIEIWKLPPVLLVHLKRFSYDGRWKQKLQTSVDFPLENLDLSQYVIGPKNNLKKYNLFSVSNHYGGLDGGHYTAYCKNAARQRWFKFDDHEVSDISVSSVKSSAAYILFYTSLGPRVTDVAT

Usually IC50 stands for the point on the concentration scale where inhibition reaches its midpoint. For `COc1ccc(NC(=O)Cn2cc(C(=O)c3ccccc3)c(=O)c3cc(Cl)ccc32)cc1OC`, the IC50 was > 40 µM (inactive).

As for `CC(=O)c1ccc(NC(=O)CCc2c(C)c3c(C)nn(-c4ccccc4)c3n(C)c2=O)cc1`, the IC50 was > 40 µM (inactive).

With `O=C(Cn1c(=O)n(Cc2ccc3c(c2)OCO3)c(=O)c2cccnc21)Nc1ccc(F)cc1`, the IC50 is > 40 µM (inactive).

`Cc1ccc(NC(=O)Cc2nnc3c(-c4nc(C5CC5)no4)cccn23)c(C)c1`: the IC50 was > 40 µM (inactive).

For `COc1ccc(NC2c3ccccc3C(=O)N2c2ccccn2)cc1` (stereo unspecified), the IC50 was > 40 µM (inactive).

Take `COc1ccc(CCN2COc3c(cc(Cl)c4cccnc34)C2)cc1OC`: the IC50 is > 40 µM (inactive).

Regarding `CC(OC(=O)c1cc(S(=O)(=O)Nc2ccccc2F)ccc1Cl)C(=O)Nc1ccc([N+](=O)[O-])cc1C(F)(F)F` (stereo unspecified), the IC50 is > 40 µM (inactive).

On to `CC(C)[C@H]1CC[C@@]2(CO2)[C@H]2C(=O)OCC(C(=O)O)=C[C@H]12`, for which the IC50 was 22.9 µM.

For `COc1c(C)c(OC(=O)c2c(C)c(C)c(OC(=O)c3c(C)c(C)c(O)c(C)c3O)c(C)c2OC)c(C)c(C)c1C(=O)O`, the IC50 was > 40 µM (inactive).

Regarding `O=C(CCn1c(=O)c2ccccc2n(CC(=O)OCc2ccccc2)c1=O)NCc1ccc2c(c1)OCO2`, the IC50 is > 40 µM (inactive).

For the molecule `Cn1nc(Cl)c(Cl)c1Oc1ccc(S(=O)(=O)Nc2ccc(Oc3ccc(C(F)(F)F)cn3)c(Cl)c2)cc1`, the IC50 was > 40 µM (inactive).

For `COc1cc(Cl)c(NC(=O)c2cc(-c3ccccn3)n[nH]2)c(OC)c1`, the IC50 is > 40 µM (inactive).

`COc1cc(NC(=O)Cn2c(=O)n(-c3ccc(CC(=O)NC4CCCC4)cc3)c(=O)c3ccccc32)cc(OC)c1`: the IC50 is > 40 µM (inactive).

As to `Cc1nc(-c2ccc(C(=O)Nc3ccc(F)cc3)cc2)cs1`, the IC50 was > 40 µM (inactive).

On to `COc1ccc(CSc2nc3ccncc3n2CC(=O)Nc2ccc(C)cc2C)cc1`, for which the IC50 is > 40 µM (inactive).

Regarding `COc1cccc2c1NC(=O)C21CCN(C(=O)Nc2cccc3ccccc23)CC1`, the IC50 is > 40 µM (inactive).

Consider `Cc1noc(-c2ccnc(-n3cnc(C(=O)NCC4CC4)c3)c2)n1`, for which the IC50 is > 40 µM (inactive).

Regarding `Cc1cc(C)c2nc3c(cc2c1)CN(Cc1ccco1)C(=O)O3`, the IC50 was > 40 µM (inactive).

With `Cc1ccccc1-c1noc(-c2ccccc2OCC(=O)NC(C)C)n1`, the IC50 is > 40 µM (inactive).

On to `CCn1c(SCC(=O)c2c(N)n(CC(C)C)c(=O)n(C)c2=O)nnc1-c1ccccc1`, for which the IC50 is > 40 µM (inactive).

Turning to `COc1ccc(CNC(=O)C2CCCN(S(=O)(=O)Cc3ccc(Cl)cc3)C2)cc1` (stereo unspecified), the IC50 is > 40 µM (inactive).

On to `COc1ccc2c(c1)CCc1c-2nc2ccccc2c1N1CCOCC1`, for which the IC50 was > 40 µM (inactive).

In the case of `COc1ccc(NC(=O)Cn2cc(C(=O)c3ccc(Cl)cc3)c(=O)c3cc(F)ccc32)cc1`, the IC50 was > 40 µM (inactive).

Regarding `Cc1sc(NC(=O)c2ccc(S(=O)(=O)N(C)Cc3ccccc3)cc2)c(C(N)=O)c1C`, the IC50 was > 40 µM (inactive).

For `CN(C)c1cccc(-c2nnc(SCC(=O)Nc3ccc(F)cc3)n2-c2ccccc2)c1`, the IC50 is > 40 µM (inactive).

In the case of `O=C(c1cccnc1)N1CCCC(Cc2cc(-c3ncc[nH]3)ncn2)C1` (stereo unspecified), the IC50 was > 40 µM (inactive).

For `O=C(Cn1cc(C(=O)C(F)(F)F)c2ccccc21)N1CCc2ccccc21`, the IC50 was > 40 µM (inactive).

For `O=C(c1cc2occc2c(Nc2ccc(F)cc2)n1)N1CCN(c2ccccc2)CC1`, the IC50 is > 40 µM (inactive).

With `COc1ccc(C)cc1NC(=O)C1CC(=O)Nc2nc3ccccc3n21` (stereo unspecified), the IC50 is > 40 µM (inactive).

For the molecule `O=c1oc2c3c(c(Cl)cc2c2c1CCCC2)OCN(Cc1ccccc1)C3`, the IC50 is > 40 µM (inactive).

Regarding `Cc1nc(SCC(=O)Nc2ccc(S(N)(=O)=O)cc2)c2cnn(-c3ccccc3)c2n1`, the IC50 is > 40 µM (inactive).

The values are drawn from PubChem BioAssay AID1645862 (Buhrlage Lab, Dana-Farber Cancer Institute and Novartis …, 2021).
